Like-named read-outs stand apart in the source and are kept apart here.
Key:
CEM-SS cells = assay: cells; type: cell-based; conditions: for IC50: Homo sapiens, CEM-SS; for toxicity at the high test dose: high test dose of 316 µM
From the text: (§1) One exemplary means to determine antiviral activity is with CEM-SS cells and virus (e.g., HIV-1RF) (MOI = 0.01) using the XTT (2,3-bis[2-methoxy- 4-nitro-5-sulfophenyl] -5- [(phenylamino)carbonyl]-2H-tetrazolium hydroxide) cytoprotection assay, as described by Rice (1993) PNAS 90:9721-9724, and Rice (1997) Antimicrob. Agents Chemother. 41:419-426. Briefly, cells are infected with HIV-1RF (or other virus to be tested) in the presence of various dilutions of test compounds (thiolesters and controls). The cultures are incubated for seven days. During this time control cultures without protective compounds (i.e., compounds with anti-viral activity) replicate virus, induce syncytia, and result in about 90% cell death. The cell death is measured by XTT dye reduction. XTT is a soluble tetrazolimn dye that measures mitochondrial energy output, similar to MTT. Positive controls using dextran sulfate (an attachment inhibitor) or 3'-Azido -2'-3'-dideoxythymidine, AZT (a reverse transcriptase inhibitor) are added to each assay. Individual assays are done in duplicate using a sister plate method.
(§2) Effective antiviral concentrations providing 50% cytoprotection (EC50), and cellular growth inhibitory concentrations causing 50% cytotoxicity (IC50) are calculated.

HIV-1RF = assay: XTT cytoprotection assay (antiviral activity); type: cell-based; conditions: for antiviral activity: result in words
From the text: as §1, §2

[1] = target: T1, recombinant HIV-1 NCp7 protein (Human immunodeficiency virus type 1 group M subtype B, UniProt P03347); assay: Trp37 zinc finger fluorescence (zinc ejection) assay; type: biochemical; conditions: for Zinc Finger Reactivity RFU/30 min: Table 2
T1 construct: within the nucleocapsid p7 (NCp7) protein portion of the polyprotein
Procedure: Zinc finger reactivity was measured using a Zn specific fluorochrome, TSQ, N-(6-methoxy-8-quinolyl) -p-toluenesulfonamide, assay or a Trp37 zinc finger fluorescence assay. Fluorescent measurements of the Trp37 residue in the C-terminal finger of recombinant HIV-1 NCp7 protein were performed as described by Rice (1995) Science 270:1194-1197; Rice (1997) Antimicrob. Agents Chemother. 41:419-426. Measurement of Zn ejection from both fingers was measured using the Zn-selective fluorchrome probe TSQ (Molecular Probes, Eugene OR) as described by Rice (1996) J. Med. Chem 39:3606-3616. Measurement of the ability of NCp7 to bind to a DNA oligomer, a 44 mer: […] (SEQ ID NO:1), analogous to the HIV-1 RNA packaging site was carried out as described by Huang (1998) J. Med. Chem. 41:1371-1381, see also, Rossio (1998) HIV Pathogenesis and Treatment: Keystone Symposium on Molecular and Cellular Biology, Abstract # 4082. Briefly, 50 nM NCp7 was treated with test compounds for 1 hour at RT in […] buffer containing 10% glycerol and 50 mM Tris-HCl (pH 7.5). Labeled oligomer (0.1 picomole, end labeled [^32P]) was added in an equal volume of buffer containing 10% glycerol, 50 mM Tris-HCl (pH 7.5), 400 mM KCl and 40 mM MgCl2. The reaction was continued for 15 min at room temperature, and a total of […] (or 1/4 of the total reaction volume) was separated on nondenaturing 4.5% polyacrylamide gels in 0.5X Tris-Borate electrophoresis buffer. NCp7-oligomer complexes were visualized by autoradiography.
Changes in the intrinsic fluorescence of aromatic protein moieties are commonly used to monitor a reaction which involves a change in protein conformation. In the present invention, fluorescence can be used to monitor the loss of metal ion from a zinc finger, e.g., the loss of zinc from a CCHC retroviral zinc finger protein, after contact with a thiolester of the invention. The intrinsic fluorescence of Trp 37 in the second zinc finger of HIV-1 NC protein has been used to monitor nucleic acid binding and conformation of the zinc finger complex (see, Summers (1992) supra).
Zinc ejection is measured by the ability of compounds to chemically attack the cysteines in purified NCp7 protein resulting in a loss of fluorescence due to the movement of the tryptophan 37 residue from an exposed to an internal position on the protein. Zinc ejection is measured and expressed as either percent decrease in total fluorescence or decrease in relative fluorescence units per min during a 30 min assay (RFU/min). A thiolester is considered within the scope of the invention if any amount of zinc ejection is detected. For example, compound 50 has a zinc ejection rate of 0.86 RFU/min.

[2] = read-out: Antiviral Activity IC50
[3] = Human immunodeficiency virus 1, read-out: Antiviral Activity EC50
[4] = Human immunodeficiency virus 1, read-out: EC50 (concentration inhibiting 50% virus replication)
[5] = Table 3, average decrease in relative fluorescence
[6] = read-out: Antiviral Activity IC50%
[7] = Human immunodeficiency virus 1, read-out: Antiviral Activity EC50%
[8] = Table 10, average decrease in relative fluorescence units over 30 min
[9] = read-out: IC50 / cellular toxicity
[10] = Table 5, average decrease in relative fluorescence units over 30 min
[11] = average decrease in relative fluorescence

Row | Structure (SMILES) | IC50 (CEM-SS cells; [2]) [µM] | EC50 (HIV-1RF; [3]) [µM] | Zinc Finger Reactivity RFU/ min [1, 5] [RFU/ min] | IC50 (CEM-SS cells; [6]) [µM] | also measured
1 | O=C(Nc1ccc(S(=O)(=O)c2ccc([N+](=O)[O-])cc2)cc1)c1ccccc1SSc1ccccc1C(=O)Nc1ccc(S(=O)(=O)c2ccc([N+](=O)[O-])cc2)cc1 [Compound 31D] | > 316 | 12.2 | 2.9 | – | toxicity at the high test dose (CEM-SS cells): no toxicity; EC50 (HIV-1RF; [4]): 12.2 µM
2 | CC(=O)Nc1ccc(S(=O)(=O)Nc2ccc(S(=O)(=O)c3ccc(NC(=O)c4ccccc4SSc4ccccc4C(=O)Nc4ccc(S(=O)(=O)c5ccc(NS(=O)(=O)c6ccc(NC(C)=O)cc6)cc5)cc4)cc3)cc2)cc1 [Compound 28D] | 12.7 | 1 | 5.9 | – | –
3 | CC(=O)NS(=O)(=O)c1ccc(NC(=O)c2ccccc2SC(=O)CCC[n+]2ccccc2)cc1 [Compound 54] | – | – | – | 175 | EC50 (HIV-1RF; [7]): 10.1 µM; Zinc Finger Reactivity RFU/ min [1, 8]: 2.2 RFU/ min
4 | NS(=O)(=O)c1ccc(CNC(=O)c2ccccc2SC(=O)CCCC[n+]2ccccc2)cc1 [Compound 48] | 55 | – | – | – | IC50 (CEM-SS cells; [9]): 55 µM; EC50 (HIV-1RF; [7]): 1.1 µM; Zinc Finger Reactivity RFU/ min ([1]; Table 6, average decrease in relative fluorescence units over 30 min): 1.4 RFU/ min
5 | CC(=O)NS(=O)(=O)c1ccc(NC(=O)c2ccccc2SC(C)=O)cc1 [Compound 40] | – | 2.8 | – | 56.7 | IC50 (CEM-SS cells; [9]): ~50 µM; Zinc Finger Reactivity RFU/ min [1, 10]: 4.2 RFU/ min
6 | O=c1c2ccccc2sn1-c1ccc(S(=O)(=O)c2ccc([N+](=O)[O-])cc2)cc1 [31 BITA] | > 316 | > 316 | 4.1 | – | antiviral activity (HIV-1RF): without antiviral activity
7 | CC(=O)NS(=O)(=O)c1ccc(NC(=O)c2cccc(NC(=O)CCCl)c2)cc1 [Compound 38] | – | 38 | – | 103 | antiviral activity (HIV-1RF): neither had appreciable antiviral activity; Zinc Finger Reactivity RFU/ min [1, 10]: 3.9 RFU/ min; zinc finger reactivity ([1]; result in words): modest zinc finger reactivity
8 | O=C(Nc1ccc(S(=O)(=O)c2ccc(NS(=O)(=O)Cc3ccccc3[N+](=O)[O-])cc2)cc1)c1ccccc1SSc1ccccc1C(=O)Nc1ccc(S(=O)(=O)c2ccc(NS(=O)(=O)Cc3ccccc3[N+](=O)[O-])cc2)cc1 [Compound 34D] | > 316 | – | 1.5 | – | toxicity at the high test dose (CEM-SS cells): no toxicity; EC50 (HIV-1RF; [4]): 12.3 µM; antiviral activity (HIV-1RF): significant antiviral activity
9 | NS(=O)(=O)c1ccc(NC(=O)CNC(=O)c2ccccc2SSc2ccccc2C(=O)NCC(=O)Nc2ccc(S(N)(=O)=O)cc2)cc1 [Compound 25D, N,N'-(2,2'-dithiodibenzoyl)-bis-4-(glycinamido)benzene-sulfonamide] | 17.6 | 1.6 | – | – | zinc finger reactivity / zinc ejection rate [1]: 7.9 RFU/min; Zinc Finger Reactivity RFU/30 min [1, 11]: 7.9 RFU/30 min
10 | CC(=O)Nc1ccc(S(=O)(=O)Nc2ccc(S(=O)(=O)c3ccc(-n4sc5ccccc5c4=O)cc3)cc2)cc1 [28 BITA] | 188 | 9.6 | 7.9 | – | –
11 | CC(=O)NS(=O)(=O)c1ccc(NC(=O)c2ccccc2NC(=O)CCl)cc1 [Compound 39] | – | > 316 | – | 202 | antiviral activity (HIV-1RF): completely inactive; Zinc Finger Reactivity RFU/ min [1, 10]: 0.3 RFU/ min
12 | NS(=O)(=O)c1ccc(Cn2sc3ccccc3c2=O)cc1 [23 BITA] | 53.7 | 13.8 | – | – | IC50 (CEM-SS cells; [9]): 53.7 µM; Zinc Finger Reactivity RFU/30 min [1, 11]: 2.7 RFU/30 min
13 | CC(=O)NS(=O)(=O)c1ccc(NC(=O)c2ccccc2SC(=O)CCCC[n+]2cccc(Cl)c2)cc1 [Compound 57] | – | – | – | 264 | EC50 (HIV-1RF; [7]): 54 µM; Zinc Finger Reactivity RFU/ min [1, 8]: 0.2 RFU/ min
14 | O=C(Nc1ccc(S(=O)(=O)c2ccc(NC(=O)c3ccccc3SSc3ccccc3C(=O)Nc3ccc(S(=O)(=O)c4ccc(NC(=O)c5cccs5)cc4)cc3)cc2)cc1)c1cccs1 [Compound 30D] | 190 | 12.2 | – | – | –
